The source of these data is PubChem BioAssay (NCI).

Holding throughout (assay): DTP human tumour cell line panel, 48 h
For experiment [1], the system named is EKVX NSCLC.
Experiment [2] concerns IGROV1 ovarian.
Experiment [3] deals with UACC-62 melanoma.
Experiment [4] has as its system KM12 colon.
The subject of experiment [5] is SK-MEL-5 melanoma.
In experiment [6] the test system is OVCAR-8 ovarian.
Experiment [7] relates to HOP-62 NSCLC.
The subject of experiment [8] is 786-0 renal.
Experiment [9] deals with SK-OV-3 ovarian.
For experiment [10], the system named is MDA-MB-231 breast.
Experiment [11] deals with RPMI-8226 leukemia.
Experiment [12] concerns NCI-H226 lung.
Experiment [13] relates to NCI-H460 lung.
The subject of experiment [14] is NCI-H23 lung.
For experiment [15], the system named is HOP-92 NSCLC.
Experiment [16] has as its system SNB-19 CNS.

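Dose response: 5 concentrations. Exposure: 48 h. Format: 96-well plates. Endpoint: linear interpolation; highest concentration if not reached. TGI: concentration producing complete growth inhibition.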 Where a SMILES comes first, the peptide text is derived from it. [ ]: non-standard residue; d: D form. The star is where a group is joined. ξ: configuration not given here. ξD = NC(CC(=O)O)C(=O)O; Boc = CC(C)(C)OC(=O)*; Aib = CC(C)(N)C(=O)O; OBn = c1ccc(CO*)cc1

In the case of `Cc1nc(C(N)=S)sc1C(=O)CC(=O)C(=O)Nc1ccc(Br)cc1`, the TGI in experiment [1], in [2], in experiment [3], in experiment [4], in experiment [5] and in experiment [6] was > 100 µM in each case. Moreover, the TGI in experiment [7], in experiment [8], in [9], in experiment [10], in experiment [11] and in [12] was > 100 µM each time. The TGI in experiment [13], in [14] and in experiment [15] was > 100 µM throughout.
`CC1(C)CN(CC(=O)O)CC(Cc2ccc(OCC(=O)O)cc2)N(CC(=O)O)CC(C)(C)SS1` (stereo unspecified): the TGI in [1], in [2], in experiment [3], in [4], in experiment [5] and in [6] was > 100 µM in each case. Further, the TGI in experiment [7], in experiment [8], in [9], in experiment [10], in experiment [11] and in experiment [12] was > 100 µM in each case. Further, the TGI in [16], in experiment [13], in experiment [14] and in experiment [15] was > 100 µM each time.
Regarding `CC(C)CC(=O)CC(C)[C@]1(CCCOCc2ccccc2)C(=O)N2CCC3(C[C@@]24CCC[C@H]41)OCCO3` (stereo partly specified), the TGI in [1], in [2], in experiment [4], in experiment [5], in experiment [6] and in experiment [7] was > 10 µM throughout. For the same compound, the TGI in [8], in experiment [9], in experiment [10], in experiment [11], in experiment [12] and in [16] was > 10 µM throughout. Moreover, the TGI in experiment [13], in experiment [14] and in experiment [15] was > 10 µM in each case.
As for `O=C(O)CCC(NC(=O)c1ccc(Oc2nc3ccccc3nc2C(=O)O)cc1)C(=O)O` (stereo unspecified), the total growth inhibition concentration (TGI) in experiment [1], in experiment [2], in experiment [3], in experiment [4], in experiment [5] and in experiment [6] was > 100 µM in each case. In addition, the TGI in experiment [7], in experiment [8], in [9], in experiment [10], in experiment [11] and in experiment [12] was > 100 µM each time. Besides, the TGI in [16], in [13], in experiment [14] and in experiment [15] was > 100 µM in each case.
Consider `COc1ccccc1NC1Oc2cc3c(cc2C(c2cc(OC)c(OC)c(OC)c2)C1C)OCO3` (stereo unspecified), for which the TGI in experiment [1] is > 100 µM; in [2], > 100 µM; in experiment [3] it was > 60.9 µM; in [4], 29.4 µM; in experiment [5], 16.8 µM; in [6], > 64.2 µM. In addition, the TGI in experiment [7] is > 51.1 µM; in experiment [8], 36.8 µM; in experiment [9], > 31.1 µM; in [10] it was > 23.9 µM; in experiment [11] it was 21 µM; in [12], 9.92 µM. Moreover, the TGI in [16] was > 100 µM; in [13] it was > 100 µM; in [14] it was > 82.1 µM; in experiment [15], > 22.8 µM.
With `O=C(N/C(=C\c1ccccc1)c1nc2ccccc2c(=O)o1)c1ccccc1`, the TGI in experiment [1], in experiment [2], in experiment [3], in [4], in experiment [5] and in experiment [6] was > 100 µM each time. Besides, the TGI is > 100 µM in experiment [7]; > 100 µM in experiment [8]; > 100 µM in [9]; > 71.9 µM in experiment [10]; > 100 µM in experiment [11]; > 100 µM in experiment [12]. For the same compound, the TGI was > 67.1 µM in [16], > 100 µM in experiment [13], > 100 µM in [14] and > 100 µM in [15].
On to `CC(C)(C)OC(=O)NC(CC(=O)OCc1ccccc1)C(=O)NC(C)(C)C(N)=O` (stereo unspecified) (Boc-[ξD](OBn)-[Aib]-NH2), for which the TGI in [1], in experiment [2], in [3], in experiment [4], in experiment [5] and in experiment [6] was > 100 µM in each case. Also, the TGI in experiment [7], in experiment [8], in experiment [9], in experiment [10], in [11] and in [12] was > 100 µM each time. For the same compound, the TGI in experiment [16], in experiment [13], in [14] and in experiment [15] was > 100 µM throughout.
Turning to `CC(=O)Nc1ccc(S(=O)(=O)c2nnc(NC(C)=O)s2)cc1`, the TGI in [1], in experiment [2], in [3], in experiment [4], in [5] and in [6] was > 100 µM throughout. Besides, the TGI in experiment [7], in [8], in [9], in experiment [10], in [11] and in [12] was > 100 µM throughout. Further, the TGI in experiment [16], in experiment [13], in [14] and in experiment [15] was > 100 µM each time.
For the compound `CC(C(=O)NCNC(=O)c1ccccc1)C(=O)Nc1ccccc1` (stereo unspecified), the TGI in experiment [1], in experiment [2], in experiment [3], in experiment [4], in experiment [5] and in experiment [6] was > 100 µM each time. In addition, the TGI in [8], in experiment [9], in experiment [10], in experiment [11], in [12] and in [16] was > 100 µM in each case. Also, the TGI in experiment [13], in experiment [14] and in experiment [15] was > 100 µM in each case.

The term TGI denotes the concentration at which net growth stops. Higher therefore signals lower sensitivity of the cells.
